Measured values as given in US6555663B1, “Prodrugs for selective drug delivery” (priority 1986, dated 2003).

Key:
[1] = test system: RSFFV (Raucher Spleen Focus Forming Virus); assay: Treatment of C3H mice infected with Raucher Spleen Focus Forming Virus: spleen weight; format: in vivo
Procedure: The effectiveness of MTL J-1 was tested in C3H mice against the virus RSFFV (Raucher Spleen Focus Forming Virus) which is a retrovirus and is a valid animal model for HIV infection by application to the above identified mice according to the following procedure:
(§1) Three groups of two month old C3H mice, each comprising four animals were provided as one control and two test groups, wherein, the three-groups (I-III) were subjected to an infectious dose of RSFFV on day one. The first group (I) served as control and received no treatment. Group II and III were treated with […] total body weight concentration of the drug Foscarnet and the test compound MTL J-1, respectively which was administered each day for days 5 through 9. The animals were sacrificed on day 14, where upon the spleens where removed and weighed.
(§2) The tests were redone with a second control group (IA) having no infection of RSFFV and receiving no treatment with any drug, wherein groups I and IA comprise four mice each, and groups II and III comprise five mice each, providing the results summarized below: […]

[2] = Body weight of treated RSFFV-infected C3H mice (toxicity); format: in vivo
Procedure: as §1, §2

[3] = RSFFV-infected C3H mice, 10 μM total body weight concentration, days 5 through 9
[4] = first test (Table 1), RSFFV on day one, 10 μM total body weight concentration each day for days 5 through 9, sacrificed day 14
[5] = repeat test (Table 2) with a second, uninfected control group IA, same treatment

Substance	Effectiveness, as demonstrated by the absence of splenomegaly [1, 3]	Spleen weight Normalized [1, 4]	Spleen weight Normalized [1, 5] [grams]	Toxicity, as demonstrated by an absence of weight loss [2, 3]	Ending Weight ([2]; mouse, in vivo) [grams]	Weight change ([2]; mouse, in vivo)	Ending Weight [2, 4] [grams]	Weight change [2, 4] [grams]	Ending Weight [2, 5] [grams]	Weight change [2, 5]
5-phosphonoformate-1,5-di-(p-N-2-(N-(4-aminobutyl)-N-ethylisoluminol)-N-ethylaminophenyl)-1,5-bis-(p-N,N-dimethylaniline)-1,3-pentadiene [MTL J-1]	highly effective	.068 grams	0.049	nontoxic	19.2	+1.5 grams	–	–	–	–
phosphonoformate [Foscarnet]	–	.079 grams	0.061	–	–	–	21.2	0.15	19.6	+1.6 grams
